Laboratory results reported in US8987474B2 (University of South Florida, priority 2006, dated 2015).
Where two headings read alike, the source gives them in different places.

Legend:
[1] = molecular target: Shp2 (Homo sapiens (Human), UniProt Q06124); test: PTP activity assay (DiFMUP substrate) with GST-Shp2; format: biochemical; details: for IC50: Table II, Shp2
From the text: All constructs were verified by DNA sequencing.
Recombinant DEP1 was from Abcam.

[2] = molecular target: T1, Shp1 (Homo sapiens (Human), UniProt P29350); test: biochemical
[3] = molecular target: T1, Shp1

T1 sequence (P29350 203-595): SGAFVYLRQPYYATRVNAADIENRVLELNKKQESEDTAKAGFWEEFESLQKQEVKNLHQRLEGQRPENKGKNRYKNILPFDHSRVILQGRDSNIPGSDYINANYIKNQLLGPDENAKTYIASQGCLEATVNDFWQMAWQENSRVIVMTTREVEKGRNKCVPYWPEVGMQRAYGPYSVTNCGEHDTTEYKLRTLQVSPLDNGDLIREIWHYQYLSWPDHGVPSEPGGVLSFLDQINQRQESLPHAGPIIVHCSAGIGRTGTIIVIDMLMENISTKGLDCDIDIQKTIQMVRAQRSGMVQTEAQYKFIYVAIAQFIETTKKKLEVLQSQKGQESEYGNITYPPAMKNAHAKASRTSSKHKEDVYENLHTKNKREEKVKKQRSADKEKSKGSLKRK
Sequence of Shp2 (Q06124 205-593): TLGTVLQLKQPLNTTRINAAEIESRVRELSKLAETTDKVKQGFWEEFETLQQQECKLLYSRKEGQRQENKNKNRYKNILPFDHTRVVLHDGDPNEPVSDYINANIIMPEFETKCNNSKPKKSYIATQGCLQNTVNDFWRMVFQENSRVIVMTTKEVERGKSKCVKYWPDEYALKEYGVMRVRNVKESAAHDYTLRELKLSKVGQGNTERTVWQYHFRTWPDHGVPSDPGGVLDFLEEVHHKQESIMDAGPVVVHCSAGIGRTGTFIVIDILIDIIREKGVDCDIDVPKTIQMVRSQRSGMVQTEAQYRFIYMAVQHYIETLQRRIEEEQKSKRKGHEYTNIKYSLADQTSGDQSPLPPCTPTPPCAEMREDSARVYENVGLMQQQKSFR

Structure (SMILES) | % PTP activity ([1]; concentration not given) | % PTP activity ([1]; at 20 μM) | other results
O=C1Nc2ccc(S(=O)(=O)NCc3ccc(Cl)cc3)cc2/C1=N/Nc1ccccc1[N+](=O)[O-] [RPM139, 3-[(2-Nitrophenyl)hydrazono]-2-oxo-2,3-dihydro-1H-indole-5-sulfonic acid 4-chlorobenzylamide] | 12 ± 5% (12) |  | IC50 [2]: 42.2 µM
CC(C)NS(=O)(=O)c1ccc2c(c1)/C(=N/Nc1cccc(C(=O)O)c1)C(=O)N2 [RPM297, 3-[N′-(5-Isopropylsulfamoyl-2-oxo-1,2-dihydro-indol-3-ylidene)hydrazino]benzoic acid] |  | 54 ± 8% (2) At 20 μM | IC50 [3]: 15.7 µM
O=C1Nc2ccc(S(=O)(=O)O)cc2/C1=N/Nc1ccccc1[N+](=O)[O-] [HL1-056] | 86 ± 3% (6) |  | IC50 [3]: 68.1 µM
O=C1Nc2ccc(C(=O)NCc3ccc(Cl)cc3)cc2/C1=N/Nc1cccc(C(=O)O)c1 [HL2-070-5] |  | 62.32% (1) at 20 μM | IC50 [3]: 19.4 µM
O=C(O)c1cccc(NC(=O)c2ccc3cc(C(=O)O)ccc3c2)c1 [HL2-022-1] | 53 ± 4% (6) |  | 
O=C1Nc2ccc(C(=O)O)cc2/C1=N/Nc1ccccc1C(=O)O [HL2-052-2] |  | 46 ± 3% (2) at 20 μM | IC50 [2]: 21.4 µM
CN(Cc1ccccc1)S(=O)(=O)c1ccc2c(c1)/C(=N/Nc1ccccc1[N+](=O)[O-])C(=O)N2 [RPM136, 3-[(2-Nitrophenyl)hydrazono]-2-oxo-2,3-dihydro-1H-indole-5-sulfonic acid benzyl-methylamide] | 39 ± 8% (12) |  | 
COC(=O)c1ccccc1/C=C1\C(=O)Nc2ccc(S(=O)(=O)NC(C)C)cc21 [RPM347, 2-(5-Isopropylsulfamoyl-2-oxo-1,2-dihydro-indol-3-ylidenemethyl)benzoic acid methyl ester] |  | 48 ± 9% (2) At 20 μM | 
O=C1Nc2ccc(S(=O)(=O)NCN3CCOCC3)cc2/C1=N/Nc1ccccc1Cl [HL2-016-8] | 41 ± 4% (6) |  | 
CC(C)NS(=O)(=O)c1ccc2c(c1)/C(=N/Nc1ccccc1[N+](=O)[O-])C(=O)N2 [RPM169, 3-[(2-Nitrophenyl)hydrazono]-2-oxo-2,3-dihydro-1H-indole-5-sulfonic acid isopropylamide] | 8 + 3% (12) |  | IC50 [2]: 110 µM
CC(C)NS(=O)(=O)c1ccc2c(c1)/C(=N/Nc1ccccc1C(=O)NCCN1CCOCC1)C(=O)N2 [RPM293, 2-[N′-(5-Isopropylsulfamoyl-2-oxo-1,2-dihydro-indol-3-ylidene)hydrazino]-N-(2-morpholin-4-yl-ethyl)benzamide] |  | 49 ± 6% (2) At 20 μM | 
O=C(O)c1ccc(NC(=O)c2ccc3cc(C(=O)O)ccc3c2)cc1 [RPM194] |  | 69 ± 7.5% (3) at 20 uM | 
O=C1Nc2ccc(C(=O)NCc3ccc(Cl)cc3)cc2/C1=N/Nc1cccc(C(=O)O)c1 [HL2-070-9] |  | 25 ± 2% (2) at 20 μM | 
CNC(=O)c1cccc(N/N=C2\C(=O)Nc3ccc(S(=O)(=O)NC(C)C)cc32)c1 [RPM330, 3-[N′-(5-Isopropylsulfamoyl-2-oxo-1,2-dihydro-indol-3-ylidene)hydrazino]-N-methylbenzamide] |  | 47 ± 1% (2) at 20 μM | 
O=C1Cc2cc(S(=O)(=O)NCc3ccc(Cl)cc3)ccc2N1 [RPM307, 2-Oxo-2,3-dihydro-1H-indole-5-sulfonic acid 4-chloro-benzylamide] |  | 39 ± 10% (20 at 20 μM | 
CCC(C)NS(=O)(=O)c1ccc2c(c1)/C(=N/Nc1ccccc1[N+](=O)[O-])C(=O)N2 (centres unmarked) [RPM173, 3-[(2-Nitrophenyl)hydrazono]-2-oxo-2,3-dihydro-1H-indole-5-sulfonic acid sec-butylamide] | 33 ± 7% (12) |  | 
CC(C)NS(=O)(=O)c1ccc2c(c1)/C(=N/Nc1ccccc1C(N)=O)C(=O)N2 [RPM283, 2-[N′-(5-Isopropylsulfamoyl-2-oxo-1,2-dihydro-indol-3-ylidene)hydrazino]benzamide] |  | 52 ± 7% (2) At 20 μM | 
NS(=O)(=O)c1ccc2c(c1)/C(=N/Nc1ccccc1[N+](=O)[O-])C(=O)N2 [RPM134, 3-[(2-Nitrophenyl)hydrazono]-2-oxo-2,3-dihydro-1H-indole-5-sulfonicamide] | 13 ± 5% (12) |  | IC50 [2]: 93.5 µM
O=C1Nc2ccc(S(=O)(=O)NCc3ccncc3)cc2/C1=N/Nc1ccccc1Cl [HL2-016-15] | 48 ± 5% (6) |  | 
CCOC(=O)c1ccc(N/C=C2\C(=O)Nc3ccc(S(=O)(=O)NC(C)C)cc32)cc1 [RPM288, 4-[(5-Isopropylsulfamoyl-2-oxo-1,2-dihydro-indol-3-ylidenemethyl)amino]benzoic acid ethyl ester] |  | 30 ± 2% (2) at 20 μM | 
CN(C)S(=O)(=O)c1ccc2c(c1)/C(=N/Nc1ccccc1[N+](=O)[O-])C(=O)N2Cc1ccccc1 [RPM156] | 34 ± 4% (12) |  | 

Structure (SMILES) | % PTP activity ([1]; concentration not given) | % PTP activity ([1]; at 20 μM) | other results
CCOC(=O)c1cccc(N/C=C2\C(=O)Nc3ccc(S(=O)(=O)NC(C)C)cc32)c1 [RPM302, 3-[(5-Isopropylsulfamoyl-2-oxo-1,2-dihydro-indol-3-ylidenemethyl)amino]benzoic acid ethyl ester] |  | 51 ± 7% (2) at 20 μM | IC50 [1]: 33 to 100 µM
CCN(CC)C(=O)c1ccc2c(c1)/C(=N/Nc1ccccc1[N+](=O)[O-])C(=O)N2 [HL2-070-3] |  | 14 ± 2% (2) at 20 μM | 
O=C1Nc2ccc(S(=O)(=O)NCc3cccs3)cc2/C1=N/Nc1ccccc1[N+](=O)[O-] [RPM140, 3-[(2-Nitrophenyl)hydrazono]-2-oxo-2,3-dihydro-1H-indole-5-sulfonic acid (thiophen-2-ylmethyl)amide] | 37 ± 4% (6) |  | 
CCN(CC)C(=O)c1ccc2c(c1)/C(=N/Nc1ccccc1C(=O)O)C(=O)N2 [HL2-070-1] |  | 100.18% (1) at 20 μM | 
O=C1Nc2ccc(S(=O)(=O)NCc3cccnc3)cc2/C1=N/Nc1ccccc1[N+](=O)[O-] [HL2-016-20] | 68 ± 8% (6) |  | 
COCCNS(=O)(=O)c1ccc2c(c1)/C(=N/Nc1ccccc1Cl)C(=O)N2 [HL2-016-12] | 32 ± 3% (6) |  | 
NS(=O)(=O)c1ccc(NC(=O)c2ccc3cc(C(=O)O)ccc3c2)cc1 [RPM195] |  | 54 ± 6% (3) at 20 uM | 
COc1cccc(CNS(=O)(=O)c2ccc3c(c2)/C(=N/Nc2ccccc2Cl)C(=O)N3)c1 [HL2-016-5] | 51 ± 4% (6) |  | 
CC(C)NS(=O)(=O)c1ccc2c(c1)/C(=N/Nc1ccccc1C(=O)NCc1ccccc1)C(=O)N2 [RPM287, N-Benzyl-2-[N′-(5-isopropylsulfamoyl-2-oxo-1,2-dihydro-indol-3-ylidene)hydrazino]benzamide] |  | 48 ± 10% (2) At 20 μM | 
O=C1Nc2ccc(S(=O)(=O)O)cc2/C1=N/Nc1cc(Cl)ccc1Cl [RPM225, 2-Oxo-3-[(2,5-dichlorophenylhydrazono)]-2,3-dihydro-1H-indole-5-sulfonic acid] |  | 73 ± 22% at 20 μM | IC50 [1]: 33 to 100 µM
CN(C)S(=O)(=O)c1ccc2c(c1)/C(=N/Nc1ccccc1Cl)C(=O)N2 [HL2-016-1] | 36 ± 11% (12) |  | 
CCCNS(=O)(=O)c1ccc2c(c1)/C(=N/Nc1ccccc1[N+](=O)[O-])C(=O)N2 [RPM170, 3-[(2-Nitrophenyl)-hydrazono]-2-oxo-2,3-dihydro-1H-indole-5-sulfonic acid propylamide] | 43 ± 8% (12) |  | 
CC(C)NS(=O)(=O)c1ccc2c(c1)/C(=N/Nc1ccccc1C(=O)O)C(=O)N2 [RPM186, 2-[N′-(5-Isopropylsulfamoyl-2-oxo-1,2-dihydro-indol-3-ylidene)-hydrazino]benzoic acid] |  | 0.8 ± 1% (3) at 20 μM | IC50 [2]: 10.8 µM
CC(C)NS(=O)(=O)c1ccc2c(c1)/C(=N/Nc1cccc(C(=O)NCCN(C)C)c1)C(=O)N2 [RPM326, N-(2-Dimethylamino-ethyl)-3-[N′-(5-isopropylsulfamoyl-2-oxo-1,2-dihydro-indol-3-ylidene)hydrazino]benzamide] |  | 57 + 13% (2) at 20 μM | 
O=C1Nc2ccc(S(=O)(=O)O)cc2/C1=N/Nc1ccccc1C(F)(F)F [RPM221, 2-Oxo-3-[(2-trifluoromethylphenylhydrazono)]-2,3-dihydro-1H-indole-5-sulfonic acid] |  | 63 ± 4% (3) at 20 μM | IC50 [1]: 33 to 100 µM
COC(=O)c1cc(NC(=O)c2ccc3cc(C(=O)OC)ccc3c2)cc(C(=O)OC)c1 [HL2-026-Intermediate] | 40 ± 4% (6) |  | IC50 [1]: 33 to 100 µM
CCOC(=O)c1cccc(NC(=O)c2ccc3cc(C(=O)OC)ccc3c2)c1 [HL2-022-1-Intermediate] | 68 ± 20% (7) |  | 
O=C1Nc2ccc(S(=O)(=O)O)cc2/C1=N/Nc1ccc(Cl)cc1Cl [RPM224, 2-Oxo-3-[(2,4-dichlorophenylhydrazono)]-2,3-dihydro-1H-indole-5-sulfonic acid] |  | 81 ± 10% (3) at 20 μM | IC50 [1]: 33 to 100 µM
CCC(C)NS(=O)(=O)c1ccc2c(c1)/C(=N/Nc1ccccc1Cl)C(=O)N2 (centres unmarked) [HL2-016-13] | 35 ± 4% (6) |  | 
O=C1Nc2ccc(C(=O)O)cc2/C1=N/Nc1cccc(C(=O)O)c1 [HL2-052-3] |  | 56.94% (1) at 20 μM | IC50 [3]: 72.5 µM
CN(C)CCCNS(=O)(=O)c1ccc2c(c1)/C(=N/Nc1ccccc1[N+](=O)[O-])C(=O)N2 [HL2-016-21] | 77 ± 2% (6) |  | 
